The values below are quoted from earlier work in patent US20200397756A1, “A STABLE PHARMACEUTICAL COMPOSITION OF POORLY SOLUBLE NONSTEROIDAL ANTIANDROGENS” (KASHIV BIOSCIENCES, LLC, priority 2018, published 2020).

For series [1] the following is noted: water between pH 1 to 11.
Assay in series [2]: not given
This is another data set of the same source.

The structures appear in SMILES notation.

As to `CNC(=O)c1ccc(N2C(=S)N(c3cnc(C#N)c(C(F)(F)F)c3)C(=O)C23CCC3)cc1F` [apalutamide, 4-(7-(6-Cyano-5-(trifluoromethyl)pyridin-3-yl)-8-oxo-6-thioxo-5,7-diazaspiro(3.4)octan-5-yl)-2-fluoro-N-methylbenzamide], the permeability entry is recorded as “high”. Further, the solubility in water result in series [1] is listed as “practically insoluble”. The “solubility in absolute ethanol” value in series [2] was “sparingly soluble”.

On to `CNC(=O)c1ccc(N2C(=S)N(c3ccc(C#N)c(C(F)(F)F)c3)C(=O)C2(C)C)cc1F` [Enzalutamide, 4-{3-[4-cyano-3-(trifluoromethyl)phenyl]-5,5-dimethyl-4-oxo-2-sulfanylideneimidazolidin-1-yl}-2-fluoro-N-methylbenzamide], for which the permeability result is recorded as “high”. In series [1], the solubility in water result is “practically insoluble”. The “solubility in absolute ethanol” value in series [2] is given as “sparingly soluble”.
